Assays:
[1] = tested on: Salmonella typhimurium tester strains (TA1535, TA1537, TA98, TA100); assay: Ames bacterial reverse mutation assay, vapor-phase exposure by desiccator methodology; assay type: cell-based; conditions: for mutagenicity / toxicity of the single isomer as concluded from the Ames tests of mixture and purified material: conclusion from comparing the 71.2/28.5 trans/cis mixture with the 96.5 wt % trans material
Description: (§1) Toxological testing was undertaken as part of the evaluation of HCFO-1233zd as a blowing agent. Ames testing was performed on a blend of trans- and cis- HCFO-1233zd and purified trans- HCFO-1233zd. The Ames test is a study designed to determine if a material can interact with DNA and cause point mutations, i.e. to determine if a material is mutagenic. Many carcinogenic materials are also mutagenic and this assay is often used as a quick screen for potential to cause an adverse effect on genetic material. It utilizes several strains of bacteria (Salmonella typhimurium and E. coli) and is often routinely included when developing the toxicology profile of a substance. If a substance substantially increases the mutation rate in the bacterial tester strains, the study result is defined as positive and the test substance is considered to be mutagenic.
(§2) The purpose of the study was to evaluate the mutagenic potential of the test article vapor by measuring it ability to induce reverse mutations at selected loci of several stains of Salmonella typhimurium and at the tryptophan locus of Escherichia coli strains WP2 uvrA in the presence and absence of Aroclor-induced rat liver S9. The test system was exposed to the test article via desiccator methodology. For each replicate plating, the mean and standard deviation of the number of revertants per plate were calculated and reported. Negative and positive controls were also run.
(§3) For the test article to be evaluated positive, it must cause a dose-related increase in the mean revertants per plate of at least one tester strain over a minimum of two increasing concentrations of test article. Data for tester strains TA1535 and TA1537 were judged positive if the increase in mean revertants at the peak of the dose response is equal to or judged greater than 3.0-times the mean vehicle control value. Data sets for tester strains TA98, TA100 and WP2 uvrA were judged positive if the increase in mean revertants at the peak of the dose response is equal to or greater than 2.0-times the mean vehicle control value.

[2] = tested on: Escherichia coli strains WP2 uvrA (tryptophan locus); assay: as above; assay type: cell-based; conditions: E. coli WP2 uvrA
Description: as §1, §2, §3

Compound	mutagenicity / toxicity of the single isomer as concluded from the Ames tests of mixture and purified material [1]	mutagenicity / toxicity of the single isomer as concluded from the Ames tests of mixture and purified material ([1]; listed as trans isomer)	Ames test result (mutagenic response) ([2]; presence and absence of Aroclor-induced rat liver S9)	toxicity to tester strains ([2]; with and without S9)	Ames test result (mutagenic response) ([1]; Salmonella typhimurium tester strains, presence and absence of Aroclor-induced rat liver S9)	toxicity to tester strains ([1]; Salmonella typhimurium tester strains, with and without S9)
FC(F)(F)/C=C/Cl [trans-isomer of 1-chloro-3,3,3-trifluoropropene, trans-1-chloro-3,3,3-trifluoropropene]	less toxic	significantly lower genotoxicity				
FC(F)(F)/C=C\Cl [cis-isomer, cis-1-chloro-3,3,3-trifluoropropene]	active mutagenic agent					
FC(F)(F)C=CCl [purified material, 1-chloro-3,3,3-trifluoropropene]			did not cause a positive mutagenic response	No toxicity was observed	did not cause a positive mutagenic response	No toxicity was observed

From patent US9738768B2, “Blowing agent composition of hydrochlorofluoroolefin” (Arkema Inc., priority 2007, dated 2017)
